Test system: HBsAg
Experiment: HBsAg assay (CLIA) in HepG2.2.15 cells
Assay type: cell-based, HBV
Details: Hepatitis B virus, HepG2.2.15, read-out: IC50 (HBsAg secretion)
Description: HepG2.2.15 cells (Acs et al. Proc Natl Acad Sci USA, 84, (1987), 4641-4), a constitutively HBV-expressing cell line were cultured in DMEM+Glutamax-I medium (Invitrogen, Carlsbad, Calif., USA), supplemented with 10% fetal bovine serum (Invitrogen) and G418 (Invitrogen) at a final concentration of 200 mg/L and maintained in 5% CO2 at 37° C.
HepG2.2.15 cells were seeded in duplicate into white, 96-well plates at 1.5×10^4 cells/well. The cells were treated with a three-fold serial dilution series of the compounds in DMSO. The final DMSO concentration in all wells was 1% and DMSO was used as no drug control.
The HBsAg chemiluminescence immunoassay (CLIA) kit (Autobio Diagnostics Co., Zhengzhou, China, Catalog number: CL0310-2) was used to measure the levels of secreted HBV antigens semi-quantitatively. For the detection 50 μL/well culture supernatant was used and HBsAg was quantified using HBsAg chemiluminescence immunoassay (CLIA) kit (Autobio Diagnostics Co., Zhengzhou, China, Catalog number: CL0310-2), 50 μL of the supernatant was transferred to the CLIA assay plate and 50 μL of enzyme conjugate reagent was added into each well. The plates were sealed and gently agitated for 1 hour at room temperature. The supernatant-enzyme-mixture was discarded and wells were washed 6 times with 300 μL of PBS. The residual liquid was removed by plating the CLIA plate […] on absorbent tissue paper. 25 μL of substrates A and B were added to each well. Luminance was measured using a luminometer (Mithras LB 940 Multimode Microplate Reader) after 10 minutes incubation, Dose-response curves were generated and the IC50 value was extrapolated by using the E-WorkBook Suite (ID Business Solutions Ltd., Guildford, UK). The IC50 was defined as the compound concentration (or conditioned media log dilution) at which HBsAg secretion was reduced by 50% compared to the no drug control.
The compounds of the present invention were tested for their capacity to inhibit HBsAg as described herein. The Examples were tested in the above assay and found to have IC50 of about 0.001 μM to about 50.0 μM.

| Structure (SMILES) | IC50 [µM] |
| --- | --- |
| COc1cc2c(cc1OC)-c1cc(=O)c(C(=O)O)cn1CCC2 [Example 1, 10,11-Dimethoxy-2-oxo-7,8-dihydro-6H-pyrido[2,1-a][2]benzazepine-3-carboxylic acid] | 35.4 |
| CCC1CCc2cc(OCc3ccccc3)c(OC)cc2-c2cc(=O)c(C(=O)O)cn21 (stereo not shown) [Example 2, 10-Benzyloxy-6-ethyl-11-methoxy-2-oxo-7,8-dihydro-6H-pyrido[2,1-a][2]benzazepine-3-carboxylic acid] | 1.08 |
| CCC1CCc2cc(OCCCOC)c(OC)cc2-c2cc(=O)c(C(=O)O)cn21 (stereo not shown) [Example 3, 6-Ethyl-11-methoxy-10-(3-methoxypropoxy)-2-oxo-7,8-dihydro-6H-pyrido[2,1-a][2]benzazepine-3-carboxylic acid] | 0.419 |
| CCC1CCc2cc(OCCCCCCNC(=O)OC(C)(C)C)c(OC)cc2-c2cc(=O)c(C(=O)O)cn21 (stereo not shown) [Example 4, 10-[6-(Tert-butoxycarbonylamino)hexoxy]-6-ethyl-11-methoxy-2-oxo-7,8-dihydro-6H-pyrido[2,1-a][2]benzazepine-3-carboxylic acid] | 0.619 |
| CCC1CCc2cc(OCCCCCCN)c(OC)cc2-c2cc(=O)c(C(=O)O)cn21 (stereo not shown) [Example 5, 10-(6-Aminohexoxy)-6-ethyl-11-methoxy-2-oxo-7,8-dihydro-6H-pyrido[2,1-a][2]benzazepine-3-carboxylic acid] | 0.602 |
| CCC1CCc2cc(OCCCCCCNC(C)=O)c(OC)cc2-c2cc(=O)c(C(=O)O)cn21 (stereo not shown) [Example 6, 10-(6-Acetamidohexoxy)-6-ethyl-11-methoxy-2-oxo-7,8-dihydro-6H-pyrido[2,1-a][2]benzazepine-3-carboxylic acid] | 12.4 |
| CCC1CCc2cc(OCCCCCCNS(C)(=O)=O)c(OC)cc2-c2cc(=O)c(C(=O)O)cn21 (stereo not shown) [Example 7, 6-Ethyl-10-[6-(methanesulfonamido)hexoxy]-11-methoxy-2-oxo-7,8-dihydro-6H-pyrido[2,1-a][2]benzazepine-3-carboxylic acid] | 5.87 |
| CCC1CCc2cc(OCCCSC)c(OC)cc2-c2cc(=O)c(C(=O)O)cn21 (stereo not shown) [Example 8, 6-Ethyl-11-methoxy-10-(3-methylsulfanylpropoxy)-2-oxo-7,8-dihydro-6H-pyrido[2,1-a][2]benzazepine-3-carboxylic acid] | 1.89 |
| CCC1CCc2cc(OCCCS(C)(=O)=O)c(OC)cc2-c2cc(=O)c(C(=O)O)cn21 (stereo not shown) [Example 9, 6-Ethyl-11-methoxy-10-(3-methylsulfonylpropoxy)-2-oxo-7,8-dihydro-6H-pyrido[2,1-a][2]benzazepine-3-carboxylic acid] | 1.07 |
| CCC1CCc2cc(OCC(F)(F)F)c(OC)cc2-c2cc(=O)c(C(=O)O)cn21 (stereo not shown) [Example 10, 6-Ethyl-11-methoxy-2-oxo-10-(2,2,2-trifluoroethoxy)-7,8-dihydro-6H-pyrido[2,1-a][2]benzazepine-3-carboxylic acid] | 0.558 |

Reference: patent publication US10336751B2, “Tricyclic 4-pyridone-3-carboxylic acid derivatives for the treatment and prophylaxis of hepatitis B virus infection” (priority 2016, dated 2019)
